Source: patent publication US20180000085A1, “USE OF PICOLINAMIDE COMPOUNDS WITH FUNGICIDAL ACTIVITY” (DOW AGROSCIENCES LLC, priority 2014, published 2018)

How the values were obtained:
Type in all cases: in vivo
Zymoseptoria tritici = assay: Leaf blotch of wheat (SEPTTR) disease control on wheat seedlings; conditions: low volume application, 125.1 g/H; for SEPTTR 1DP disease control rating, LV activity at 125.1 g/H: 1 day protectant; for SEPTTR 3DC disease control rating, LV activity at 125.1 g/H: 3 day curative
Puccinia triticina = assay: Wheat brown rust (PUCCRT) disease control on wheat seedlings; conditions: low volume application, 125.1 g/H; for PUCCRT 1DP disease control rating, LV activity at 125.1 g/H: 1 day protectant; for PUCCRT 3DC disease control rating, LV activity at 125.1 g/H: 3 day curative
Alternaria solani = assay: Tomato early blight (ALTESO) disease control; parameters: key: A: > 80; B: ≤ 80; C: Not Tested; D: No Activity Observed in the Reported Assay; conditions: 100 ppm, 1 Day Protectant
Experimental: All fungicides were evaluated using the aforementioned method for their activity vs. all target diseases, unless stated otherwise. Wheat leaf blotch and brown rust activity were also evaluated using track spray applications, in which case the fungicides were formulated as EC formulations, containing 0.1% Trycol 5941 in the spray solutions. Wheat plants (variety Yuma) were grown from seed in a greenhouse in 50% mineral soil/50% soil-less Metro mix until the first leaf was fully emerged, with 7-10 seedlings per pot. These plants were inoculated with an aqueous spore suspension of Zymoseptoria tritici either prior to or after fungicide treatments. After inoculation the plants were kept in 100% relative humidity (one day in a dark dew chamber followed by two to three days in a lighted dew chamber at 20° C.) to permit spores to germinate and infect the leaf. The plants were then transferred to a greenhouse set at 20° C. for disease to develop. When disease symptoms were fully expressed on the 1st leaves of untreated plants, infection levels were assessed on a scale of 0 to 100 percent disease severity. Percent disease control was calculated using the ratio of disease severity on treated plants relative to untreated plants. Example J: Evaluation of Fungicidal Activity: Tomato Early Blight (Alternaria solani; Bayer Code […]) Tomato plants (variety Outdoor Girl) were propagated in soil-less Metro mix, with each pot having one plant, and used when 12 to 14 days old. Test plants were inoculated with an aqueous spore suspension of Alternaria solani 24 hr after fungicide treatments. After inoculation the plants were kept in a dew room at 22° C. with 100% relative humidity for 48 h to permit spores to germinate and infect the leaf. The plants were then transferred to a growth room at 22° C. for disease to develop. Fungicide formulation, application and disease assessment on the sprayed leaves followed the procedures as described in the Example A.

SMILES	SEPTTR 1DP, LV activity at 125.1 g/H (% Control rating) (Zymoseptoria tritici; 1 Day Protectant)	SEPTTR 3DC, LV activity at 125.1 g/H (% Control rating) (Zymoseptoria tritici; 3 Day Curative)	PUCCRT 1DP, LV activity at 125.1 g/H (% Control rating) (Puccinia triticina; 1 Day Protectant)	PUCCRT 3DC, LV activity at 125.1 g/H (% Control rating) (Puccinia triticina; 3 Day Curative)	ALTESO disease control, 1DP (Alternaria solani)	SEPTTR 1DP disease control rating, LV activity at 125.1 g/H (Zymoseptoria tritici)	SEPTTR 3DC disease control rating, LV activity at 125.1 g/H (Zymoseptoria tritici)	PUCCRT 1DP disease control rating, LV activity at 125.1 g/H (Puccinia triticina)	PUCCRT 3DC disease control rating, LV activity at 125.1 g/H (Puccinia triticina)	LV activity at 125.1 g/H SEPTTR 1DP (disease control rating) (Zymoseptoria tritici; 1 Day Protectant, wheat leaf blotch)	LV activity at 125.1 g/H SEPTTR 3DC (disease control rating) (Zymoseptoria tritici; 3 Day Curative, wheat leaf blotch)	LV activity at 125.1 g/H PUCCRT 1DP (disease control rating) (Puccinia triticina; 1 Day Protectant, wheat brown rust)	LV activity at 125.1 g/H PUCCRT 3DC (disease control rating) (Puccinia triticina; 3 Day Curative, wheat brown rust)
COc1ccnc(C(=O)N[C@@H](C)C(=O)O[C@@H](C)[C@H](Oc2cccc(Cl)c2)C(C)C)c1OC(C)=O [Cmpd 566]	B (≤ 80)	A (> 80)	A (> 80)	A (> 80)	B (≤ 80)								
COc1ccnc(C(=O)N[C@@H](C)C(=O)O[C@@H](C)[C@H](Oc2cccc(F)c2)c2ccccc2)c1OCOC(C)=O [Cmpd 574]	A (> 80)	A (> 80)	A (> 80)	A (> 80)	B (≤ 80)								
CCC(CC)[C@@H](Oc1ccc(F)cc1)[C@H](C)OC(=O)[C@H](C)NC(=O)c1nccc(OC)c1OCOC(C)=O [Cmpd 587]	A (> 80)	A (> 80)	A (> 80)	A (> 80)	D								
COc1ccnc(C(=O)N[C@@H](C)C(=O)O[C@@H](C)[C@H](Oc2cc(F)cc(Cl)c2)C(C)C)c1OCOC(C)=O [Cmpd 617]	A (> 80)	A (> 80)	A (> 80)	A (> 80)	D								
COc1ccnc(C(=O)N[C@@H](C)C(=O)O[C@@H](C)[C@H](Oc2cccc(Cl)c2)c2ccccc2)c1OCOC(C)=O [Cmpd 637]	A (> 80)	A (> 80)	A (> 80)	B (≤ 80)	D								
COc1ccnc(C(=O)N[C@@H](C)C(=O)O[C@@H](C)[C@H](Oc2ccccc2Cl)c2ccccc2)c1OC(C)=O [Cmpd 640]	A (> 80)	A (> 80)	A (> 80)	A (> 80)	B (≤ 80)								
COc1ccnc(C(=O)N[C@@H](C)C(=O)O[C@@H](C)[C@H](Oc2cc(F)cc(Cl)c2)c2ccccc2)c1OC(C)=O [Cmpd 642]	A (> 80)	A (> 80)	A (> 80)	B (≤ 80)	D								
CCC(C)C(Oc1ccccc1)C(C)OC(=O)C(C)NC(=O)c1nccc(OC)c1OC(C)=O (stereo not drawn) [Cmpd 691]					D	A (> 80)	A (> 80)	A (> 80)	A (> 80)				
CCC(C)C(Oc1ccccc1)C(C)OC(=O)C(C)NC(=O)c1nccc(OC)c1OCOC(C)=O (stereo not drawn) [Cmpd 692]					B (≤ 80)	A (> 80)	A (> 80)	A (> 80)	A (> 80)				
C=CC(C)C(Oc1ccccc1)C(C)OC(=O)C(C)NC(=O)c1nccc(OC)c1OCOC(C)=O (stereo not drawn) [Cmpd 694]					B (≤ 80)	B (≤ 80)	A (> 80)	A (> 80)	A (> 80)				
CCC[C@@H](Oc1ccccc1)[C@H](C)OC(=O)[C@H](C)NC(=O)c1nccc(OC)c1OCOC(C)=O [Cmpd 699]					B (≤ 80)	A (> 80)	A (> 80)	A (> 80)	A (> 80)				
COc1ccnc(C(=O)N[C@@H](C)C(=O)O[C@@H](C)[C@@H](CC(C)C)Oc2ccccc2)c1OCOC(=O)C(C)C [Cmpd 1101]					D					A (> 80)	A (> 80)	A (> 80)	A (> 80)
